# Results: PMC10089784, “Inhibition of Gluconeogenesis by Boldine in the Perfused Liver: Therapeutical Implication for Glycemic Control” (International Journal of Hepatology, 2023)
# What was measured:
# Format in all cases: cell-based
# [1] = target: T1, fructose 1,6-bisphosphatase (FBPase-1) (Rattus norvegicus, UniProt P19112); assay: phosphate release from fructose […],6-bisphosphate in rat liver cytosolic fraction; […] (incomplete) inhibition at […]
# T1 construct: gene Fbp1; rat liver cytosolic fraction
# T1 sequence (P19112 2-363): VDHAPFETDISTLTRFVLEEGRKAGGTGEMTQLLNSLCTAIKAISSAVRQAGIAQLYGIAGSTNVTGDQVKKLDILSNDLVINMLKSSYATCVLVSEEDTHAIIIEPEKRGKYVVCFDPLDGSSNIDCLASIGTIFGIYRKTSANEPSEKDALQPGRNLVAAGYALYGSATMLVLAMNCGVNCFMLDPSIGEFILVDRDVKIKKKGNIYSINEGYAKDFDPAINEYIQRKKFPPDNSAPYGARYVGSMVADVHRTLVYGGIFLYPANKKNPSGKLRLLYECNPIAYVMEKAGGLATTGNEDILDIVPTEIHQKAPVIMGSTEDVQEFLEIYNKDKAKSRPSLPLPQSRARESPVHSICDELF
# [2] = target: T2, glucose 6-phosphatase (G6Pase) (Rattus norvegicus, UniProt P43428); assay: phosphate release from glucose 6-phosphate in isolated rat liver microsomes; […] inhibition at […]
# T2 construct: gene G6pc1; isolated rat liver microsomes
# T2 sequence (P43428 1-357): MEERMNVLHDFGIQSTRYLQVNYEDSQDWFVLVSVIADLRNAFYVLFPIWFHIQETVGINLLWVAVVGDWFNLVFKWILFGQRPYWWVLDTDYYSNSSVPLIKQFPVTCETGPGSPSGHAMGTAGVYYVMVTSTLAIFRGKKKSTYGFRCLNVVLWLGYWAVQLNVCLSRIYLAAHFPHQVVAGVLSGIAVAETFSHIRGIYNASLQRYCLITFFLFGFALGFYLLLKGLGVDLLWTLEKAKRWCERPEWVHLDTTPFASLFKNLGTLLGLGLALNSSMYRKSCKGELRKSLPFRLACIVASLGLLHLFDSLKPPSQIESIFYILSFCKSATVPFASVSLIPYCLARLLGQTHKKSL
# [3] = target: T3, phosphoenolpyruvate carboxykinase (PEPCK) (Rattus norvegicus, UniProt P07379); assay: enzyme activity in rat liver cytosolic fraction, coupled to malate dehydrogenase (NADH oxidation, […] nm); […] inhibition at […]
# T3 construct: gene Pck1; rat liver cytosolic fraction
# T3 sequence (P07379 whole entry): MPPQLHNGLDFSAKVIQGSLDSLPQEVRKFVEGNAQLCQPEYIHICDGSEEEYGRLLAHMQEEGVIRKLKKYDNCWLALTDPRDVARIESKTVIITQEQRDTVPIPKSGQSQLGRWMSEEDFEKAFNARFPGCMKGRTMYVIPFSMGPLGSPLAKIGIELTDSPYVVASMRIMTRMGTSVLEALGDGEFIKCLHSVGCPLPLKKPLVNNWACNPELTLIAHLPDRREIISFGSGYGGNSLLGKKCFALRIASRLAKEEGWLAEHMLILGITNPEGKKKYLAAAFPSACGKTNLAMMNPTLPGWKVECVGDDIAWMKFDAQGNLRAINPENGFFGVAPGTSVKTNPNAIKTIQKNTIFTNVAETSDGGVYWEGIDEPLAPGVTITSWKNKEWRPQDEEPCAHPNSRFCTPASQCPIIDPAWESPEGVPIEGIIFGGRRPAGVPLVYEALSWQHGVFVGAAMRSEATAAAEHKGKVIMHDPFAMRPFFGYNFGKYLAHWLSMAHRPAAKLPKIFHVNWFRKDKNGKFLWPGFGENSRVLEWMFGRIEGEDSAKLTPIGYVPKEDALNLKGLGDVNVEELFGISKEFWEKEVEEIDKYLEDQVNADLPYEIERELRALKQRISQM
smiles,measurement,setting,value
"COc1cc2c(cc1O)C[C@H]1c3c(cc(O)c(OC)c3-2)CCN1C [boldine, 1,10-dimethoxy-2,9-dihydroxy aporphine]",inhibition at 200 µM,[1],42%
same,inhibition at 200 µM,[2],35%
same,inhibition at 200 µM,[3],49%
